We go through eleven compounds from patent publication US20230348462A1, “IMIDAZO[4,5-C]QUINOLINE COMPOUNDS AND THEIR USE AS ATM KINASE INHIBITORS” (Deutsches Krebsforschungszentrum, priority 2020, published 2023).

Bounds are passed on as bounds.

The IC50 is the concentration that gives 50% inhibition.

One assay has as its target human ATM (Homo sapiens (Human), UniProt Q13315). As to the kind of experiment: Enzymatic ATM assay (RBC FRET enzyme assay). To be noted: substrate p53, 5-point dilution starting at 10 μM. The assay is classed as biochemical. The method, then: The inhibitory activity on the isolated ATM kinase was determined by a commercial supplier (Reaction Biology Corp., PA, US) using an activity based FRET assay. Compounds were therefore first pre-incubated with human ATM before substrate (p53) and ATP were added to initiate the phosphorylation reaction. After a given time, the kinase reaction was stopped and the amount of phosphorylated substrate was quantified using standard FRET detection methods. […] Detailed assay conditions and parameters can be requested from the commercial supplier.

Assay [1] deals with kras^G12D; mycOE; p53^−/− murine pancreatic cancer cells (KMP53). As to the kind of experiment: KMP53 cell assay (XTT cell viability with Etoposide). The assay is classed as cell-based. The settings on record: Mus musculus, 4 h pre-treatment, then 300 nM Etoposide, 46 h. From the text: A selection of compounds was screened in a cellular assay system in two different cancer cell lines. Therefore, the cells were challenged with a generally non-cytotoxic concentration of Etoposid to induce DNA double strand breaks and the activation of the ATM pathway. The cells were further treated with different concentrations of the final compounds and viability of the cells was quantified using a standard XTT cell viability protocol. The principle of this assay lies in the fact that only alive and thus metabolically active cells are able to catalyze the reduction of XTT ((2,3-bis-(2-methoxy-4-nitro-5-sulfophenyl)-2H-tetrazolium-5-carboxanilide) by NADH from mitochondria, into formazan. The formazan product can be then detected using an absorbance-based microplate reader. The absorbance intensity measured in each well correlates to cell viability.
In brief, kras^G12D; mycOE; p53^−/− murine pancreatic cancer cells (KMP53) and Panc-1 human pancreatic ductal carcinoma cells were seeded in 96-well plates and left to attach overnight. The following day, cells were treated with serial dilutions of compound or DMSO in triplicates. The cells were first pre-treated for 4 hours with inhibitor and then 300 nM of Etoposide was added to each well. Cells were then grown under normal conditions (37° C., 95% air, 5% CO2) for 46 h. Following the incubation period, XTT solution was added to the cells containing 1 mg/ml XTT and 25 μM phenazine methosulfate (PMS) diluted in full culture medium. Cells were incubated in normal conditions for two more hours. For the determination of cell viability, absorbance at 450 nm was measured for each well. Absorbance values were then normalized to DMSO control and expressed as percentages of viability. Using software GraphPad Prism, the values were fitted in a nonlinear response curve and the IC50 values were calculated.
(Tetrazolium assays rely on reduction of a dye to a coloured formazan, in cell work by metabolically active cells.)

human ATM, sequence (Q13315 whole entry): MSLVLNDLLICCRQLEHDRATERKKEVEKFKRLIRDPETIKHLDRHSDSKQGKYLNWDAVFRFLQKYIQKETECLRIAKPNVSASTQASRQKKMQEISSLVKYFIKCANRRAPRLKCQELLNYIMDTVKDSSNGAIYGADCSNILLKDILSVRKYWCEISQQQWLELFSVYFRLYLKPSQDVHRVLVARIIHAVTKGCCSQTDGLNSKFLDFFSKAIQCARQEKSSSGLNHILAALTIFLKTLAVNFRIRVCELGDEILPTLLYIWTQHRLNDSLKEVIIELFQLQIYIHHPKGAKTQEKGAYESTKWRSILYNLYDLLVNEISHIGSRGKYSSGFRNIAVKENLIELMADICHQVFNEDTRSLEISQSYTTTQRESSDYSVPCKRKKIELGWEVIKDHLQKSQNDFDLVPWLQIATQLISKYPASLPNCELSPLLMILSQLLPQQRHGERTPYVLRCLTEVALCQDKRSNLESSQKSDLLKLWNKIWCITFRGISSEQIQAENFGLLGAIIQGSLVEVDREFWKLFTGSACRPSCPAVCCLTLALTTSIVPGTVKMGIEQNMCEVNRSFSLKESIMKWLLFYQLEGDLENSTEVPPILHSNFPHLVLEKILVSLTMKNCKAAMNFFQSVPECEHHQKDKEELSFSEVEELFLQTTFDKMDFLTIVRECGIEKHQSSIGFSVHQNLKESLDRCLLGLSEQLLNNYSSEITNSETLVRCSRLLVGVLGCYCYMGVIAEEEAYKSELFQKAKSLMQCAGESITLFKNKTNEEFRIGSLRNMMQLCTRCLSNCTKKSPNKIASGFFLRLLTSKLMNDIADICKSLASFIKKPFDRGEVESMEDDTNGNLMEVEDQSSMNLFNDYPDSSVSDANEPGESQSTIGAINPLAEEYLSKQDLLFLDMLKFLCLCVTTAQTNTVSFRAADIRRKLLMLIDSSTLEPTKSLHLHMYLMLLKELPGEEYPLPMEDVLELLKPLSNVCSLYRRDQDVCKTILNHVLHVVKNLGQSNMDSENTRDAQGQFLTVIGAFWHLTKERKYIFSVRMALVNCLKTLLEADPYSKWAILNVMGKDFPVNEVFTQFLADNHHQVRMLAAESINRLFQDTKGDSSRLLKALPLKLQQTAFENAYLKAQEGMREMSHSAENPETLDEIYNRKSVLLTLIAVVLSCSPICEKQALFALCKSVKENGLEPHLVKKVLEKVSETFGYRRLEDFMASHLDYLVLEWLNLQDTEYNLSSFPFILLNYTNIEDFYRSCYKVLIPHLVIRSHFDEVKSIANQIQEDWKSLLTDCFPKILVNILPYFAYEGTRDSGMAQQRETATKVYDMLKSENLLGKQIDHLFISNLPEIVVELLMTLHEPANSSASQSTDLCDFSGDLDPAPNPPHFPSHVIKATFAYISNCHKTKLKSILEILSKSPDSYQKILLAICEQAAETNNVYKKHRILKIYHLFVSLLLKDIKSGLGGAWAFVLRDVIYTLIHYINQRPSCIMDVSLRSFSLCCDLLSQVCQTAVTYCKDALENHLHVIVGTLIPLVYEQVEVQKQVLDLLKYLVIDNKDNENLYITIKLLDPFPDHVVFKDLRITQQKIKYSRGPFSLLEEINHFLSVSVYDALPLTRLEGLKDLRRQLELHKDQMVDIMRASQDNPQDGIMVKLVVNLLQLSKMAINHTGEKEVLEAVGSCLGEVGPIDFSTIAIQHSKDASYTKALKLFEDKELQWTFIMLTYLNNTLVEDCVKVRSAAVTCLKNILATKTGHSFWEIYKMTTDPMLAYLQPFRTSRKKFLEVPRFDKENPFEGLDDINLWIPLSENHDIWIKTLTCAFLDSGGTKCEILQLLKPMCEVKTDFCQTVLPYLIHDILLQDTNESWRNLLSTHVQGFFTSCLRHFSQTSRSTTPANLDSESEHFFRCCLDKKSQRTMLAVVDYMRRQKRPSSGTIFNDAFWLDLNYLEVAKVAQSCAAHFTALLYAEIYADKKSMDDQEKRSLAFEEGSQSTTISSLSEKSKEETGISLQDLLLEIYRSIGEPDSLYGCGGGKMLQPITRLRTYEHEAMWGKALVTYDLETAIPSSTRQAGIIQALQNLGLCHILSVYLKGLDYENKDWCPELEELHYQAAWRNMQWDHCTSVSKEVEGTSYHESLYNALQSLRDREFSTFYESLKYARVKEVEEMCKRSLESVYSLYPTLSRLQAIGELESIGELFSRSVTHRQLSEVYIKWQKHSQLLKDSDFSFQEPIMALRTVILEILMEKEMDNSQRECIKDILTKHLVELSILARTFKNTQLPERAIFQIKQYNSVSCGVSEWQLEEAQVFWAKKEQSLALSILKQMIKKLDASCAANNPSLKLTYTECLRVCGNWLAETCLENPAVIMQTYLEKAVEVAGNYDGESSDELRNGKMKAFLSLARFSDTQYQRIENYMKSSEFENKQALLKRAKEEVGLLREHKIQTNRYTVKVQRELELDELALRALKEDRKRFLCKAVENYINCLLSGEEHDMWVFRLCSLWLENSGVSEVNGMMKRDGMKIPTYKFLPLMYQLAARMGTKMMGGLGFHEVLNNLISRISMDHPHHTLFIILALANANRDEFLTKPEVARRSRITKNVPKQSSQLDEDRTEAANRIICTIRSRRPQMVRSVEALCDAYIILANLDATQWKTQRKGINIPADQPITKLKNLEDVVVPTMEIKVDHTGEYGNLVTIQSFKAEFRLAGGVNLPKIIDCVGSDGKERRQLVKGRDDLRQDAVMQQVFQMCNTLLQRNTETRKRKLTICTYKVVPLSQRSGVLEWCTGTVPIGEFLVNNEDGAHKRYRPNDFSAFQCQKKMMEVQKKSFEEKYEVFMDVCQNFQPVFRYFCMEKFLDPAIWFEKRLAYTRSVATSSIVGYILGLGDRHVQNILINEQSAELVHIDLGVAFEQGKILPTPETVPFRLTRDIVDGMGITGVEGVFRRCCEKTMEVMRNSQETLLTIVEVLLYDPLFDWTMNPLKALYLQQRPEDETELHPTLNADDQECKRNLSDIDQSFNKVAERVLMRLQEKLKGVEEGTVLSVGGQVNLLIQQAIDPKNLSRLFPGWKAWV

In the case of `COCCn1c(=O)n(C)c2cnc3ccc(-c4ccc(NC(=O)N5CCC(NC(=O)OC(C)(C)C)CC5)cc4)cc3c21` [Ex. 13, tert-Butyl (1-((4-(1-(2-methoxyethyl)-3-methyl-2-oxo-2,3-dihydro-1H-imidazo[4,5-c]quinolin-8-yl)phenyl)carbamoyl)piperidin-4-yl)carbamate], on human ATM, the IC50 was determined as 2.3 nM.

For `COCCn1c(=O)n(C)c2cnc3ccc(-c4ccc(NC(=O)N5CCN(C)CC5)cc4)cc3c21` [Ex. 20, N-(4-(1-(2-methoxyethyl)-3-methyl-2-oxo-2,3-dihydro-1H-imidazo[4,5-c]quinolin-8-yl)phenyl)-4-methylpiperazine-1-carboxamide], the IC50 in assay [1] stood at 3800 nM.

As for `CN(C)CCCOc1ccc(-c2ccc3ncc4nc(-c5ccccc5)n(C5CCOCC5)c4c3c2)cn1` [Ex. 4, N,N-Dimethyl-3-((5-(2-phenyl-1-(tetrahydro-2H-pyran-4-yl)-1H-imidazo[4,5-c]quinolin-8-yl)pyridin-2-yl)oxy)propan-1-amine], the IC50 in assay [1] amounted to 2100 nM; against human ATM, 3.7 nM.

On to `Cc1nc2cnc3ccc(-c4ccc(OCCCN(C)C)nc4)cc3c2n1C1CCOCC1` [Ex. 2, N,N-Dimethyl-3-((5-(2-methyl-1-(tetrahydro-2H-pyran-4-yl)-1H-imidazo[4,5-c]quinolin-8-yl)pyridin-2-yl)oxy)propan-1-amine], for which the IC50 came out at 8100 nM in assay [1] and 2.9 nM against human ATM.

The compound `COCCn1c(=O)n(C)c2cnc3ccc(-c4ccc(NC(=O)NCCN5CCC5)cc4)cc3c21` [Ex. 49, 1-(2-(Azetidin-1-yl)ethyl)-3-(4-(1-(2-methoxyethyl)-3-methyl-2-oxo-2,3-dihydro-1H-imidazo[4,5-c]quinolin-8-yl)phenyl)urea] showed an IC50 on human ATM of less than 1 nM.

Consider `COCCn1c(=O)n(C)c2cnc3ccc(-c4ccc(NC(=O)N5CCC(N(C)C)C5)cc4)cc3c21` (stereo not shown) [Ex. 25, 3-(Dimethylamino)-N-(4-(1-(2-methoxyethyl)-3-methyl-2-oxo-2,3-dihydro-1H-imidazo[4,5-c]quinolin-8-yl)phenyl)pyrrolidine-1-carboxamide], for which, at human ATM, the IC50 was 7 nM.

In the case of `COCCn1c(=O)n(C)c2cnc3ccc(-c4ccc(NC(=O)NCCN(C)C)c(C)c4F)cc3c21` [Ex. 48, 1-(2-(Dimethylamino)ethyl)-3-(3-fluoro-4-(1-(2-methoxyethyl)-3-methyl-2-oxo-2,3-dihydro-1H-imidazo[4,5-c]quinolin-8-yl)-2-methylphenyl)urea], the IC50 in assay [1] stood at 7950 nM.

In turn, `COCCn1c(=O)n(C)c2cnc3ccc(-c4ccc(NC(=O)NC5CN(C)C5)cc4)cc3c21` [Ex. 21, 1-(4-(1-(2-Methoxyethyl)-3-methyl-2-oxo-2,3-dihydro-1H-imidazo[4,5-c]quinolin-8-yl)phenyl)-3-(1-methylazetidin-3-yl)urea] displayed an IC50 against human ATM of less than 1 nM.

At human ATM, `COCCn1c(=O)n(C)c2cnc3ccc(-c4ccc(NC(=O)NC5CCN(C)CC5)cc4)cc3c21` [Ex. 18, 1-(4-(1-(2-Methoxyethyl)-3-methyl-2-oxo-2,3-dihydro-1H-imidazo[4,5-c]quinolin-8-yl)phenyl)-3-(1-methylpiperidin-4-yl)urea] displayed an IC50 of 4 nM.

At human ATM, `COCCn1c(=O)n(C)c2cnc3ccc(-c4ccc(NC(=O)N5CC(N(C)C)C5)cc4)cc3c21` [Ex. 26, 3-(Dimethylamino)-N-(4-(1-(2-methoxyethyl)-3-methyl-2-oxo-2,3-dihydro-1H-imidazo[4,5-c]58uinoline-8-yl)phenyl)azetidine-1-carboxamide] gave an IC50 of 4 nM.

With `COCCn1c(=O)n(C)c2cnc3ccc(-c4ccc(NC(=O)NC5CCN(C(=O)OC(C)(C)C)CC5)cc4)cc3c21` [Ex. 15, tert-Butyl 4-(3-(4-(1-(2-methoxyethyl)-3-methyl-2-oxo-2,3-dihydro-1H-imidazo[4,5-c]quinolin-8-yl)phenyl)ureido)piperidine-1-carboxylate], at human ATM, the IC50 was less than 1 nM.
